Results reported in patent US6355799B1, “Substituted benzene compounds, process for their preparation, and herbicidal and defoliant compositions containing them” (ISK Americas Incorporated, priority 1997, dated 2002).

Assays:
Assay type in all cases: in vivo
[1] = tested on: johnsongrass (Sorghum halepense, SORHA); assay: Pre-emerge test, greenhouse herbicide activity screening; settings: rating scale 0-100, 14 days after application
Procedure, shortened: (§1)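 Herbicidal damage is scored 0 (none) to 100 (complete plant death) two weeks after a simulated field spray. Rates span 15–1000 g ai/ha, delivered in acetone at 187 l/ha. For post-emergence treatments, plants have 2–3 leaves and the spray carries 0.25% v/v non-ionic surfactant.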

[2] = tested on: ivyleaf morningglory (Ipomoea hederacea, IPOHE); assay: as above; settings: rating scale 0-100, 14 days after application
Procedure, shortened: as §1

[3] = tested on: large crabgrass (Digitaria sanguinalis, DIGSA); assay: as above; settings: rating scale 0-100, 14 days after application
Procedure, shortened: as §1

[4] = tested on: velvetleaf (Abutilon theophrasti, ABUTH); assay: as above; settings: rating scale 0-100, 14 days after application
Procedure, shortened: as §1

[5] = tested on: green foxtail (Setaria viridis, SETVI); assay: as above; settings: rating scale 0-100, 14 days after application
Procedure, shortened: as §1

[6] = tested on: sicklepod (Cassia obtusifolia, CASOB); assay: as above; settings: rating scale 0-100, 14 days after application
Procedure, shortened: as §1

[7] = tested on: barnyardgrass (Echinochloa crus-galli, ECHCG); assay: as above; settings: rating scale 0-100, 14 days after application
Procedure, shortened: as §1

[8] = tested on: lambsquarters (Chenopodium album, CHEAL); assay: as above; settings: rating scale 0-100, 14 days after application
Procedure, shortened: as §1

[9] = tested on: redroot pigweed (Amaranthus retroflexus, AMARE); assay: as above; settings: rating scale 0-100, 14 days after application
Procedure, shortened: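 Compounds in acetone were track-sprayed at 187 l/ha, 15–1000 g ai/ha, onto sandy loam pots. Pre-emerge seeds were sown one day before spraying, with surface watering afterwards. Post-emerge plants were at the 2–3 leaf stage and sprayed with 0.25% v/v non-ionic surfactant. Injury was rated 0–100 at 14 days.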

[10] = tested on: upland rice (Oryza sp., var. Tebonnet, RICE); assay: Post-emerge test, crop safety; settings: rating scale 0-100 (0 no damage, 100 complete death), 14 days after application
Procedure, shortened: as §1

[11] = tested on: field corn (Zea mays L., var. Dekalb 535, CORN); assay: Post-emerge test, crop safety; settings: rating scale 0-100 (0 no damage, 100 complete death), 14 days after application
Procedure, shortened: as §1

[12] = tested on: johnsongrass (Sorghum halepense, SORHA); assay: Post-emerge test, greenhouse herbicide activity screening; settings: rating scale 0-100 (0 no damage, 100 complete death), 14 days after application
Procedure, shortened: (§2)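 Plants grown in 10 cm pots of sandy loam mix received acetone-dissolved compounds through a moving flat-fan nozzle. Doses ranged from 15 to 1000 g ai/ha. Pre-emerge pots were seeded one day earlier, post-emerge pots 8–21 days earlier. Fourteen days on, each pot was graded 0–100 for damage.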

[13] = tested on: ivyleaf morningglory (Ipomoea hederacea, IPOHE); assay: as above; settings: rating scale 0-100 (0 no damage, 100 complete death), 14 days after application
Procedure, shortened: as §2

[14] = tested on: common ragweed (Ambrosia artemisizfolia L., AMBEL); assay: as above; settings: rating scale 0-100 (0 no damage, 100 complete death), 14 days after application
Procedure, shortened: as §2

[15] = tested on: large crabgrass (Digitaria sanguinalis, DIGSA); assay: as above; settings: rating scale 0-100 (0 no damage, 100 complete death), 14 days after application
Procedure, shortened: as §2

[16] = tested on: velvetleaf (Abutilon theophrasti, ABUTH); assay: as above; settings: rating scale 0-100 (0 no damage, 100 complete death), 14 days after application
Procedure, shortened: as §2

[17] = tested on: redroot pigweed (Amaranthus retroflexus, AMARE); assay: as above; settings: rating scale 0-100 (0 no damage, 100 complete death), 14 days after application
Procedure, shortened: as §2

[18] = tested on: green foxtail (Setaria viridis, SETVI); assay: as above; settings: rating scale 0-100 (0 no damage, 100 complete death), 14 days after application
Procedure, shortened: as §2

[19] = tested on: sicklepod (Cassia obtusifolia, CASOB); assay: as above; settings: rating scale 0-100 (0 no damage, 100 complete death), 14 days after application
Procedure, shortened: as §2

[20] = tested on: barnyardgrass (Echinochloa crus-galli, ECHCG); assay: as above; settings: rating scale 0-100 (0 no damage, 100 complete death), 14 days after application
Procedure, shortened: as §2

[21] = tested on: lambsquarters (Chenopodium album, CHEAL); assay: as above; settings: rating scale 0-100 (0 no damage, 100 complete death), 14 days after application
Procedure, shortened: as §2

[22] = tested on: upland rice (Oryza sp., var. Tebonnet, RICE); assay: Pre-emerge test, crop safety; settings: rating scale 0-100, 14 days after application
Procedure, shortened: (§3)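 Visual ratings on a 0-100 scale (0 no damage, 100 all plants dead) were taken at 14 days after treatment. Rates of 15-1000 g ai/ha in acetone, 187 l/ha, were sprayed onto soil one day after planting (pre-emerge) or onto 2-3 leaf plants with 0.25% v/v surfactant (post-emerge).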

[23] = tested on: field corn (Zea mays L., var. Dekalb 535, CORN); assay: Pre-emerge test, crop safety; settings: rating scale 0-100, 14 days after application
Procedure, shortened: as §3

COc1c(Cl)cc(F)c(-n2c(=O)cc(C(F)(F)F)n(C)c2=O)c1CC(C)(Cl)C(=O)OCC(F)(F)C(F)F (centres unmarked) [14-45]
Pre-emerge herbicidal activity, phytotoxicity rating SORHA ([1]; 63 g ai/ha): 0
Pre-emerge herbicidal activity, phytotoxicity rating SORHA ([1]; 250 g ai/ha): 50
Pre-emerge herbicidal activity, phytotoxicity rating IPOHE ([2]; 63 g ai/ha): 0
Pre-emerge herbicidal activity, phytotoxicity rating IPOHE ([2]; 250 g ai/ha): 0
Pre-emerge herbicidal activity, phytotoxicity rating DIGSA ([3]; 63 g ai/ha): 30
Pre-emerge herbicidal activity, phytotoxicity rating DIGSA ([3]; 250 g ai/ha): 99
Pre-emerge herbicidal activity, phytotoxicity rating ABUTH ([4]; 63 g ai/ha): 100
Pre-emerge herbicidal activity, phytotoxicity rating ABUTH ([4]; 250 g ai/ha): 100
Pre-emerge herbicidal activity, phytotoxicity rating SETVI ([5]; 63 g ai/ha): 0
Pre-emerge herbicidal activity, phytotoxicity rating SETVI ([5]; 250 g ai/ha): 95
Pre-emerge herbicidal activity, phytotoxicity rating CASOB ([6]; 63 g ai/ha): 0
Pre-emerge herbicidal activity, phytotoxicity rating CASOB ([6]; 250 g ai/ha): 0
Pre-emerge herbicidal activity, phytotoxicity rating ECHCG ([7]; 63 g ai/ha): 0
Pre-emerge herbicidal activity, phytotoxicity rating ECHCG ([7]; 250 g ai/ha): 80
Pre-emerge herbicidal activity, phytotoxicity rating CHEAL ([8]; 63 g ai/ha): 95
Pre-emerge herbicidal activity, phytotoxicity rating CHEAL ([8]; 250 g ai/ha): 100
Pre-emerge herbicidal activity, phytotoxicity rating AMARE ([9]; 63 g ai/ha): 100
Pre-emerge herbicidal activity, phytotoxicity rating AMARE ([9]; 250 g ai/ha): 100
Post-emerge phytotoxicity rating RICE (crop damage) ([10]; Rate 63 g ai/ha): 70
Post-emerge phytotoxicity rating RICE (crop damage) ([10]; Rate 250 g ai/ha): 100
Post-emerge phytotoxicity rating CORN (crop damage) ([11]; Rate 63 g ai/ha): 70
Post-emerge phytotoxicity rating CORN (crop damage) ([11]; Rate 250 g ai/ha): 100
Post-emerge Herbicidal Activity, phytotoxicity rating SORHA ([12]; Rate 63 g ai/ha): 70
Post-emerge Herbicidal Activity, phytotoxicity rating SORHA ([12]; Rate 250 g ai/ha): 90
Post-emerge Herbicidal Activity, phytotoxicity rating IPOHE ([13]; Rate 63 g ai/ha): 100
Post-emerge Herbicidal Activity, phytotoxicity rating IPOHE ([13]; Rate 250 g ai/ha): 100
Post-emerge Herbicidal Activity, phytotoxicity rating AMBEL ([14]; Rate 63 g ai/ha): 100
Post-emerge Herbicidal Activity, phytotoxicity rating AMBEL ([14]; Rate 250 g ai/ha): 100
Post-emerge Herbicidal Activity, phytotoxicity rating DIGSA ([15]; Rate 63 g ai/ha): 90
Post-emerge Herbicidal Activity, phytotoxicity rating DIGSA ([15]; Rate 250 g ai/ha): 100
Post-emerge Herbicidal Activity, phytotoxicity rating ABUTH ([16]; Rate 63 g ai/ha): 100
Post-emerge Herbicidal Activity, phytotoxicity rating ABUTH ([16]; Rate 250 g ai/ha): 100
Post-emerge Herbicidal Activity, phytotoxicity rating AMARE ([17]; Rate 63 g ai/ha): 100
Post-emerge Herbicidal Activity, phytotoxicity rating AMARE ([17]; Rate 250 g ai/ha): 100
Post-emerge Herbicidal Activity, phytotoxicity rating SETVI ([18]; Rate 63 g ai/ha): 70
Post-emerge Herbicidal Activity, phytotoxicity rating SETVI ([18]; Rate 250 g ai/ha): 95
Post-emerge Herbicidal Activity, phytotoxicity rating CASOB ([19]; Rate 63 g ai/ha): 30
Post-emerge Herbicidal Activity, phytotoxicity rating CASOB ([19]; Rate 250 g ai/ha): 30
Post-emerge Herbicidal Activity, phytotoxicity rating ECHCG ([20]; Rate 63 g ai/ha): 100
Post-emerge Herbicidal Activity, phytotoxicity rating ECHCG ([20]; Rate 250 g ai/ha): 100
Post-emerge Herbicidal Activity, phytotoxicity rating CHEAL ([21]; Rate 63 g ai/ha): 100
Post-emerge Herbicidal Activity, phytotoxicity rating CHEAL ([21]; Rate 250 g ai/ha): 100
Pre-emerge phytotoxicity rating, crop damage RICE ([22]; 63 g ai/ha): 10
Pre-emerge phytotoxicity rating, crop damage RICE ([22]; 250 g ai/ha): 80
Pre-emerge phytotoxicity rating, crop damage CORN ([23]; 63 g ai/ha): 0
Pre-emerge phytotoxicity rating, crop damage CORN ([23]; 250 g ai/ha): 10

COc1c(Cl)cc(F)c(-n2c(=O)cc(C(F)(F)F)n(C)c2=O)c1CC(C)(Cl)C(=O)OC(C)C (centres unmarked) [14-39]
Pre-emerge herbicidal activity, phytotoxicity rating SORHA ([1]; 63 g ai/ha): 0
Pre-emerge herbicidal activity, phytotoxicity rating SORHA ([1]; 250 g ai/ha): 60
Pre-emerge herbicidal activity, phytotoxicity rating IPOHE ([2]; 63 g ai/ha): 0
Pre-emerge herbicidal activity, phytotoxicity rating IPOHE ([2]; 250 g ai/ha): 0
Pre-emerge herbicidal activity, phytotoxicity rating DIGSA ([3]; 63 g ai/ha): 95
Pre-emerge herbicidal activity, phytotoxicity rating DIGSA ([3]; 250 g ai/ha): 100
Pre-emerge herbicidal activity, phytotoxicity rating ABUTH ([4]; 63 g ai/ha): 100
Pre-emerge herbicidal activity, phytotoxicity rating ABUTH ([4]; 250 g ai/ha): 100
Pre-emerge herbicidal activity, phytotoxicity rating SETVI ([5]; 63 g ai/ha): 70
Pre-emerge herbicidal activity, phytotoxicity rating SETVI ([5]; 250 g ai/ha): 100
Pre-emerge herbicidal activity, phytotoxicity rating CASOB ([6]; 63 g ai/ha): 0
Pre-emerge herbicidal activity, phytotoxicity rating CASOB ([6]; 250 g ai/ha): 20
Pre-emerge herbicidal activity, phytotoxicity rating ECHCG ([7]; 63 g ai/ha): 10
Pre-emerge herbicidal activity, phytotoxicity rating ECHCG ([7]; 250 g ai/ha): 95
Pre-emerge herbicidal activity, phytotoxicity rating CHEAL ([8]; 63 g ai/ha): 100
Pre-emerge herbicidal activity, phytotoxicity rating CHEAL ([8]; 250 g ai/ha): 100
Pre-emerge herbicidal activity, phytotoxicity rating AMARE ([9]; 63 g ai/ha): 100
Pre-emerge herbicidal activity, phytotoxicity rating AMARE ([9]; 250 g ai/ha): 100
Post-emerge phytotoxicity rating RICE (crop damage) ([10]; Rate 63 g ai/ha): 90
Post-emerge phytotoxicity rating RICE (crop damage) ([10]; Rate 250 g ai/ha): 100
Post-emerge phytotoxicity rating CORN (crop damage) ([11]; Rate 63 g ai/ha): 30
Post-emerge phytotoxicity rating CORN (crop damage) ([11]; Rate 250 g ai/ha): 50
Post-emerge Herbicidal Activity, phytotoxicity rating SORHA ([12]; Rate 63 g ai/ha): 30
Post-emerge Herbicidal Activity, phytotoxicity rating SORHA ([12]; Rate 250 g ai/ha): 40
Post-emerge Herbicidal Activity, phytotoxicity rating IPOHE ([13]; Rate 63 g ai/ha): 20
Post-emerge Herbicidal Activity, phytotoxicity rating IPOHE ([13]; Rate 250 g ai/ha): 50
Post-emerge Herbicidal Activity, phytotoxicity rating AMBEL ([14]; Rate 63 g ai/ha): 50
Post-emerge Herbicidal Activity, phytotoxicity rating AMBEL ([14]; Rate 250 g ai/ha): 50
Post-emerge Herbicidal Activity, phytotoxicity rating DIGSA ([15]; Rate 63 g ai/ha): 60
Post-emerge Herbicidal Activity, phytotoxicity rating DIGSA ([15]; Rate 250 g ai/ha): 100
Post-emerge Herbicidal Activity, phytotoxicity rating ABUTH ([16]; Rate 63 g ai/ha): 99
Post-emerge Herbicidal Activity, phytotoxicity rating ABUTH ([16]; Rate 250 g ai/ha): 100
Post-emerge Herbicidal Activity, phytotoxicity rating AMARE ([17]; Rate 63 g ai/ha): 100
Post-emerge Herbicidal Activity, phytotoxicity rating AMARE ([17]; Rate 250 g ai/ha): 100
Post-emerge Herbicidal Activity, phytotoxicity rating SETVI ([18]; Rate 63 g ai/ha): 95
Post-emerge Herbicidal Activity, phytotoxicity rating SETVI ([18]; Rate 250 g ai/ha): 100
Post-emerge Herbicidal Activity, phytotoxicity rating CASOB ([19]; Rate 63 g ai/ha): 60
Post-emerge Herbicidal Activity, phytotoxicity rating CASOB ([19]; Rate 250 g ai/ha): 100
Post-emerge Herbicidal Activity, phytotoxicity rating ECHCG ([20]; Rate 63 g ai/ha): 100
Post-emerge Herbicidal Activity, phytotoxicity rating ECHCG ([20]; Rate 250 g ai/ha): 100
Post-emerge Herbicidal Activity, phytotoxicity rating CHEAL ([21]; Rate 63 g ai/ha): 100
Post-emerge Herbicidal Activity, phytotoxicity rating CHEAL ([21]; Rate 250 g ai/ha): 100
Pre-emerge phytotoxicity rating, crop damage RICE ([22]; 63 g ai/ha): 0
Pre-emerge phytotoxicity rating, crop damage RICE ([22]; 250 g ai/ha): 80
Pre-emerge phytotoxicity rating, crop damage CORN ([23]; 63 g ai/ha): 0
Pre-emerge phytotoxicity rating, crop damage CORN ([23]; 250 g ai/ha): 0
